Values of other authors, collected in patent publication US10981914B2, “Toll-like receptor 7 (TLR7) agonists having a tricyclic moiety, conjugates thereof, and methods and uses therefor” (BRISTOL-MYERS SQUIBB COMPANY, priority 2017, dated 2021).

Tested on: IFN-α
Conditions: as measured by IFN-α induction

In the case of `CCCCOc1nc(N)c2c(n1)N(Cc1cccc(CN3CCCC3)c1)CC(=O)N2` [Vesatolimod, vesatolimod], the “potency, fold less than that of the corresponding purine-8-one compound” value is given as 100 ×.
